# Entries after “also recorded” stand apart in the source; their conditions may differ.
# How the values were obtained:
# [1] = molecular target: T1, Pim1 kinase (Homo sapiens, UniProt P11309); assay: In vitro Pim1 kinase inhibition assay (ADP-Glo); type: biochemical; settings: n = 3
# T1 construct: purchased Promega Corporation, Madison, WI
# Method: ADP-Glo^TM kinase assay kit was used to evaluate Pim1 kinase inhibition purchased from Promega Corporation, Madison, WI. At each of the kit low-volume well, the tested compounds were dissolved in DMSO at each of the tested concentration range and 1 µL was withdrawn and mixed with 2 µL Pim1 kinase and 2 µL of substrate/ATP mix then incubated at room temperature for 60 min. 5 µL of ADP-Glo reagent was added and incubated for another 40 min at room temperature. Finally 10 µL of kinase detection reagents was added and incubated for 30 min and the luminescence was recorded. Pim1 kinase buffer was prepared by mixing 40 mM Tris at pH 7.5, 20 mM MgCl2, 0.1 mg/mL BSA and 50 µM DTT.
# [2] = molecular target: Pim2 kinase (Homo sapiens, UniProt Q9P1W9); assay: In vitro Pim2 kinase inhibition assay (ADP-Glo); type: biochemical; settings: n = 3
# [3] = test system: Ehrlich solid carcinoma; assay: In vivo cytotoxicity study, Ehrlich solid carcinoma model; design: species or system male Swiss albino mice; settings: i.p. once weekly for 3 weeks; for Histopathological examination of Ehrlich solid tumour (H&E): mice; for TNF-α level (ELISA) / malondialdehyde (MDA) level (ELISA): serum, Ehrlich solid tumour mice
# Method: The National Cancer Institute (Cairo, Egypt) provided the 48 male Swiss albino mice utilised in this study, which ranged in weight from 25 to 30 g. Prior to the experiment, mice were given a week to settle into their new environment. A constant 23 °C temperature, 60% humidity, and a 12/12 light/dark cycle were maintained in stainless steel cages. Each cage housed five mice with a plenty of nourishing food and refreshing water were served. This in vivo study was approved from the ethical committee of the Azhar University, Faculty of Medicine, Egypt.
# A female mouse with an 8-day-old ascetic tumour was obtained from the National Cancer Institute on the day of induction, and Ehrlich ascites carcinoma (EAC) cells were isolated from the ascetic fluid of the animal (day 0). Then, regular saline was used to dilute the ascetic fluid (1:10). Each mouse received a subcutaneous injection of 0.2 ml of ascetic fluid containing 2.5 × 10^6 EAC cells in the right thigh of the hind limb to induce Ehrlich solid-phase cancer.
# On day 11 following ESC inoculation, tumour formation was observed as a solid mass expanding in the right thigh of each animal. The mice were then randomly divided into four groups (n = 6) • Group (1) acted as the […] control group and mice received an i.p. DMSO (2 mg/kg/once weekly) for 3 weeks. • Group (2) (Doxorubicin Group) mice received an i.p. dose of doxorubicin (2 mg/kg/once weekly) for 3 weeks. • Group (3) mice were given an i.p. dose of 8b compound (1 mg/kg/once weekly) for 3 weeks, • Group (4) mice were given an i.p. dose of 3b compound (1.4 mg/kg/once weekly) for 3 weeks.
# Two days after the last dose of therapy, blood was drawn from the mice’s orbital canthus, and serum was separated and stored at −80 °C for upcoming biochemical investigations. Following the cervical dislocation method of euthanasia, tumour samples from each mouse were collected and preserved in neutral buffered formalin at a 10% concentration for immunohistochemistry and histopathology studies. Histological preparations were performed according to the reported method. Slices of Ehrlich tumour were cut to a thickness of 3–4 mm before being fixed in 10% neutral buffered formalin (10% NBF), dehydrated through a series of ethanol solutions, cleaned in xylene, and finally embedded in paraffin. To examine the overall tissue architecture, sections ([…]) thick were cut from paraffin blocks using a microtome and stained with haematoxylin and eosin. We used a Leica microscope (CH9435 Hee56rbrugg) to look at H&E-stained tissue sections (Leica Microsystems, Switzerland).
# The avidin–biotin–peroxidase complex (ABC) method was used to do immunohistochemistry on paraffin sections that were put on positively charged slides. Rabbit Anti-VEGF Receptor 2 Polyclonal Antibody (Elabscience Cat# E-AB-63481, Dil.: 1:100) and Rabbit Monoclonal anti-caspase-3 antibody, active (cleaved) form (Sigma Aldrich Catalog # AB3623)[41], were utilised during this IHC assessment. Each group’s sections were treated with the previously specified antibodies, after which the ABC technique reagents (Vectastain ABC-HRP kit, Vector labs) were applied. To locate the antigen–antibody combination, marker expression was stained with diaminobenzidine (DAB, manufactured by Sigma) and labelled with peroxidase. In order to conduct negative controls, non-immune serum was substituted for the primary or secondary antibodies. IHC-stained sections were assessed using a Leica (CH9435 Hee56sbrugg) microscope (Leica Microsystems, Switzerland).
# Using one-way analysis of variance (ANOVA) followed by Tukey’s post-hoc test, the difference between experimental groups was analysed. All data are presented as mean ± standard deviation (SD). All comparisons were judged statistically significant when the p values ≤ 0.05. ImageJ (NIH Image J system, Bethesda, MD) was used for the analysis of immunohistochemistry photos.
# [4] = test system: breast cancer T47D cell line; assay: Breast T47D cancer cell cycle flowcytometry; type: cell-based
# Method: After treatment with test compounds for 48 h and paclitaxel (1 µM) for 48 h as positive control, cells (10^5 cells) are collected by trypsinization and washed twice with ice-cold PBS (pH 7.4). Cells are re-suspended in two millilitres of 60% ice-cold ethanol and incubated at 4 °C for 1 h for fixation. Fixed cells are washed twice again with PBS (pH 7.4) and re-suspended in 1 ml of PBS containing 50 µg/mL RNAase A and 10 µg/mL propidium iodide (PI). After 20 min of incubation in dark at 37 °C, cells are analysed for DNA contents using flow cytometry analysis using FL2 (λex/em 535/617 nm) signal detector (ACEA Novocyte™ flowcytometer, ACEA Biosciences Inc., San Diego, CA). For each sample, 12,000 events are acquired. Cell cycle distribution is calculated using ACEA NovoExpress™ software (ACEA Biosciences Inc., San Diego, CA)[36].
# [5] = Calculation of the lethal dose 50 (LD50), fixed-dose approach; settings: male, Swiss albino, mouse, in vivo, ip, mice, single dose
# Method: The LD50 of compounds 3b and 8b were determined using a fixed-dose approach; 12 male Swiss albino mice were divided into four groups (three mice per group) to calculate the LD50. […]. By giving these concentrations once to the animals and monitoring the signs of poisoning and deaths within 24 h, the lethal dose was identified. The animals were monitored continuously for the first two hours and then every four hours after that. After 24 h, all of animal deaths and survival appeared. […]. […] The dose used in the experiment was 1/10 from the LD50.
# [6] = Ehrlich solid tumour tissue, 8b 1 mg/kg, 3b 1.4 mg/kg, doxorubicin 2 mg/kg
# [7] = 8b 1 mg/kg, 3b 1.4 mg/kg, doxorubicin 2 mg/kg
# T1 sequence (P11309 whole entry): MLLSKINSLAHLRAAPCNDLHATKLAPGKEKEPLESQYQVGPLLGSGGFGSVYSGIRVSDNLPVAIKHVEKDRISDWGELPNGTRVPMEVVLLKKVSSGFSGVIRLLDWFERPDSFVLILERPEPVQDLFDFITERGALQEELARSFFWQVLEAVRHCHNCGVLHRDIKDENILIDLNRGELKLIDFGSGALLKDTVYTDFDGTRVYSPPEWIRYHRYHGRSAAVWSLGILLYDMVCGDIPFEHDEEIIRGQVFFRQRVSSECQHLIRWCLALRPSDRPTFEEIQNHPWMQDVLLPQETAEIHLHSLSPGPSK
# Pim2 kinase, sequence (Q9P1W9 whole entry): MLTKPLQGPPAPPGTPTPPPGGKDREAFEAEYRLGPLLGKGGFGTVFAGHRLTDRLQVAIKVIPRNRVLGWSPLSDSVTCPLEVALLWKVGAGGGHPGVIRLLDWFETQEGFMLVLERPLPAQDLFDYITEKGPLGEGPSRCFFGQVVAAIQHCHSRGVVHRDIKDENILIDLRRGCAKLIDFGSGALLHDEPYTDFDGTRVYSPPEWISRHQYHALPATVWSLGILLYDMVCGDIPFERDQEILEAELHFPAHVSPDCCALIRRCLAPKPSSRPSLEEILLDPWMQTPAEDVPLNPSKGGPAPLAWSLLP
SMILES,IC50 [1],IC50 [2],"VEGF expression by immunohistochemistry [3, 6]","Histopathological examination of Ehrlich solid tumour (H&E) [3, 7]",TNF-α level (ELISA) [3],malondialdehyde (MDA) level (ELISA) [3],"Percentage of breast T47D cells, G0/G1 Phase ([4]; 48 h incubation)","Percentage of breast T47D cells, Pre G1 Phase ([4]; 48 h incubation)","Percentage of breast T47D cells, S Phase ([4]; 48 h incubation)",G2 phase cells lower than the control by ([4]; relative to untreated control),pre-G1 phase cells higher than the untreated control by ([4]; relative to untreated control),LD50 at 24 h [5],"caspase-3 expression by immunohistochemistry [3, 6]","Percentage of breast T47D cells, G2 Phase ([4]; 48 h incubation)",S phase cells higher than the control by ([4]; relative to untreated control)
"Fc1ccc(-c2csc(Nc3cccc(Nc4nc(-c5ccc(F)cc5)cs4)c3)n2)cc1 [6b, N^1,N^3-bis(4–(4-fluorophenyl)thiazol-2-yl)benzene-1,3-diamine]",2950 nM,–,–,–,–,–,–,–,–,–,–,–,–,–,–
"CC(=O)c1sc(Nc2cccc(Nc3nc(C)c(C(C)=O)s3)c2)nc1C [3b, 1,1’-(2,2’-(1,3-Phenylenebis(azanediyl))bis(4-methylthiazole-5,2-diyl))diethanone]",320 nM,6050 nM,moderate to low expression of VEGF; also recorded: moderate VEGF positivity; also recorded: down-regulation of VEGF,substantial number of aggregated neoplastic cells with their typical structure were surrounded by small patches of necrotic muscle tissue; also recorded: aggregates of neoplastic cells with their typical structure that surrounded by small patches of necrotic muscle tissue,no statistical difference was detected between compounds 8b and 3b; also recorded: down-regulation of VEGF and TNF α,did not significantly vary from the untreated control group,66.5%,2.6%,18.7%,58%,78%,14 mg/kg,–,–,–
"Fc1ccc(-c2cs/c(=N\c3ccccc3)n2-c2cccc(-n3c(-c4ccc(F)cc4)cs/c3=N\c3ccccc3)c2)cc1 [8b, N,N’-(3,3’-(1,3-phenylene)bis(4–(4-fluorophenyl)thiazole-3(3H)-yl-2(3H)-ylidene))dianiline]",240 nM,10500 nM,low expression of VEGF; also recorded: no appreciable VEGF immunoreactivity; also recorded: down-regulation of VEGF,minimal infiltration of neoplastic cells and a significant reduction in their quantity; also recorded: inhibited the growth of Ehrlich solid tumours in mice,no statistical significant difference between DOX and 8b; also recorded: down-regulation of VEGF and TNF α,elevation of malondialdehyde levels,51.7%,1.9%,26.5%,–,–,10 mg/kg,highest significant increment in caspase-3 expression; also recorded: significant positive expression of caspase-3; also recorded: up-regulation of caspase-3,25.9%,77.8%
"c1ccc(-c2csc(Nc3cccc(Nc4nc(-c5ccccc5)cs4)c3)n2)cc1 [6a, N^1,N^3-bis(4-phenylthiazol-2-yl)benzene-1,3-diamine]",2020 nM,–,–,–,–,–,–,–,–,–,–,–,–,–,–
